# Non-standard residues stand in square brackets, D forms with d. Residues, ends and D or L forms follow the SMILES beside them. *: point of attachment. pNA = O=[N+]([O-])c1ccc(N*)cc1; X1 = COC(=O)CC(=O)*; Ms = CS(=O)(=O)*
# Target: Factor Xa (Homo sapiens, UniProt P00742)
# Assay: Activity towards Factor Xa: hydrolysis rate by variation in optical density with time (ΔOD/min)
# Type: biochemical
# Conditions: hydrolysis rate (ΔOD/min) at equimolar doses; activity of reference product CP 1 specified as 100%
# Experimental: The activity of the peptides according to the invention towards Factor Xa was determined by one of the conventional methods, such as the one described in EP-A-0 280 160 (see page 14), the hydrolysis rate being assessed by the variation in optical density with time (ΔOD/min). The results obtained at equimolar doses have been collated in Table III below, where the activity of the reference product CP 1 is specified as being equal to 100% for the sake of convenience.
# Factor Xa, sequence (P00742 235-488 limits assumed): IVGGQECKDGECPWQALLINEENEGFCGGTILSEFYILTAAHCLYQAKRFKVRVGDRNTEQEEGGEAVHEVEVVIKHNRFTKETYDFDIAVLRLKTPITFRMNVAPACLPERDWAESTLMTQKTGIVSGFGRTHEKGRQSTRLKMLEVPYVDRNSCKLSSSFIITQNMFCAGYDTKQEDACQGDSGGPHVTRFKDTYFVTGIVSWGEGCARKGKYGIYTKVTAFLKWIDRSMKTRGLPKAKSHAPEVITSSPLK
# Factor Xa, sequence (P00742 41-179 partner limits assumed): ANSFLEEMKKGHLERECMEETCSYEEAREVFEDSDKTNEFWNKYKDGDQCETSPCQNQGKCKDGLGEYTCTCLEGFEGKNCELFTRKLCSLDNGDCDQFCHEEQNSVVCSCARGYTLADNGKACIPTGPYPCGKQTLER
row,Compound,Activity (activity towards Factor Xa) [%]
1,"CC(C)C[C@@H](NS(C)(=O)=O)C(=O)NCC(=O)N[C@@H](CCCNC(=N)N)C(=O)Nc1ccc([N+](=O)[O-])cc1 [CP 1, reference compound] (Ms-[dL]-Gly-Arg-pNA)",100
2,"COC(=O)CC(=O)N[C@H](CC(C)C)C(=O)NCC(=O)N[C@@H](CCCNC(=N)N)C(=O)Nc1ccc([N+](=O)[O-])cc1 [Ex. 1, MM-D-Leu-Gly-L-Arg-pNA.AcOH]",115
3,"CCOC(=O)CC(=O)N[C@H](CC(C)C)C(=O)NCC(=O)N[C@@H](CCCNC(=N)N)C(=O)Nc1ccc([N+](=O)[O-])cc1 [Ex. 2, EM-D-Leu-Gly-L-Arg-pNA]",132
4,"CCCC[C@@H](NC(=O)CC(=O)OC)C(=O)NCC(=O)N[C@@H](CCCNC(=N)N)C(=O)Nc1ccc([N+](=O)[O-])cc1 [Ex. 14, MM-D-Nle-Gly-L-Arg-pNA]",140
5,"CC[C@@H](C)[C@@H](NC(=O)CC(=O)OC)C(=O)N[C@@H](CCC(=O)OC)C(=O)NCC(=O)N[C@@H](CCCNC(=N)N)C(=O)Nc1ccc([N+](=O)[O-])cc1 [Ex. 33, MM-D-Ile-L-Glu(OMe)-Gly-L-Arg-pNA] (X1-[dI]E(OMe)GR-pNA)",105
6,"COCCOC(=O)N[C@H](CC(C)C)C(=O)NCC(=O)N[C@@H](CCCNC(=N)N)C(=O)Nc1ccc([N+](=O)[O-])cc1 [Ex. 61, Me-OCH2 CH2 O-CO-D-Leu-Gly-L-Arg-pNA.AcOH]",145
7,"COCCOCCOC(=O)N[C@H](CC(C)C)C(=O)NCC(=O)N[C@@H](CCCNC(=N)N)C(=O)Nc1ccc([N+](=O)[O-])cc1 [Ex. 62, Me-O(CH2 CH2 O)2 -CO-D-Leu-Gly-L-Arg-pNA.AcOH]",105
8,"COCCOCCOCCOC(=O)N[C@H](CC(C)C)C(=O)NCC(=O)N[C@@H](CCCNC(=N)N)C(=O)Nc1ccc([N+](=O)[O-])cc1 [Ex. 63, MeO(CH2 CH2 O)3 -CO-D-Leu-Gly-L-Arg-pNA]",110
9,"COCCOCCOCCOCCOCCOCCOCCOC(=O)N[C@H](CC(C)C)C(=O)NCC(=O)N[C@@H](CCCNC(=N)N)C(=O)Nc1ccc([N+](=O)[O-])cc1 [Ex. 64, Me-O(CH2 CH2 O)7 -CO-D-Leu-Gly-L-Arg-pNA.AcOH]",103
10,CCCC[C@@H](NC(=O)OCCOCCOCCOC)C(=O)NCC(=O)N[C@@H](CCCNC(=N)N)C(=O)Nc1ccc([N+](=O)[O-])cc1 [Ex. 73],121
11,CCCCOCCOCCOCCOCCOCCOCCOCCOC(=O)N[C@H](CCCC)C(=O)NCC(=O)N[C@@H](CCCNC(=N)N)C(=O)Nc1ccc([N+](=O)[O-])cc1 [Ex. 101],124
